Where a name gives a salt, the structure may show the parent alone.

From patent US11090386B2, “Method for suppressing bitterness of quinoline derivative” (Eisai R&D Management Co., Ltd., priority 2015, dated 2021) come the findings set out here.

Series [1] can be described thus: Bitterness measurement with taste perception apparatus, relative bitterness to Comparative Example 1. Particulars: AC0 taste sensor; lenvatinib mesylate 9.8 mg/mL (8 mg/mL free form) in 10 mM potassium chloride aqueous solution, additive added, stirred 30 minutes, supernatant; average of three measurements. It is filed as physicochemical.
Protocol: Herein, the “bitterness” of Compound 1 or the pharmaceutically acceptable salt thereof is measured by the following method. A solution of Compound 1 at a concentration of 8 mg/mL as a free form is prepared by dissolving Compound 1 or the pharmaceutically acceptable salt thereof in a 10 mM potassium chloride aqueous solution. To the thus obtained solution, an additive is added if necessary, and the resultant is stirred for 30 minutes and then centrifuged to give a liquid phase component. The bitterness of the liquid phase component is measured using a taste sensor (ACO) for measuring bitterness, and the thus obtained value is used as a bitterness index. […]
The measurement with the taste perception apparatus was performed four times on each sample, and three measurement results of the second to fourth measurements were used for the analysis. […] It is noted that the relative bitterness was calculated using merely data obtained through a series of continuous measurements. Relative bitterness to Comparative Example 1(%)=(Measured value of each sample−Measured value of 10 mM potassium chloride aqueous solution)/(Measured value of Comparative Example 1—Measured value of 10 mM potassium chloride aqueous solution)×100%
Series [2] in a line: Relative comparison of bitterness with taste perception apparatus (relative to Reference Example 7). The following applies: aqueous solution of lenvatinib mesylate at a concentration of 1.225 mg/mL or more.
Protocol: Herein, the “bitterness” of Compound 1 or the pharmaceutically acceptable salt thereof is measured by the following method. A solution of Compound 1 at a concentration of 8 mg/mL as a free form is prepared by dissolving Compound 1 or the pharmaceutically acceptable salt thereof in a 10 mM potassium chloride aqueous solution. To the thus obtained solution, an additive is added if necessary, and the resultant is stirred for 30 minutes and then centrifuged to give a liquid phase component. The bitterness of the liquid phase component is measured using a taste sensor (ACO) for measuring bitterness, and the thus obtained value is used as a bitterness index.
As a blank solution for correction, a 10 mM potassium chloride aqueous solution was subjected to the measurement. […] Relative bitterness to Reference Example 7 was calculated in accordance with the following expression, and an average of the three measurement values is shown in Table 4 and FIG. 1. It is noted that the relative bitterness was calculated using merely data obtained through a series of continuous measurements. Relative bitterness to Reference Example 7(%)=(Measured value of each sample−Measured value of 10 mM potassium chloride aqueous solution)/(Measured value of Reference Example 7—Measured value of 10 mM potassium chloride aqueous solution)×100%

Regarding `COc1cc2nccc(Oc3ccc(NC(=O)NC4CC4)c(Cl)c3)c2cc1C(N)=O` [Comparative Example 1, Lenvatinib Mesylate], the “Relative Bitterness to Comparative Example 1 (%)” value in series [1] worked out at 100%. In the case of `COc1cc2nccc(Oc3ccc(NC(=O)NC4CC4)c(Cl)c3)c2cc1C(N)=O` [lenvatinib mesylate, Lenvatinib Mesylate], the “bitterness compared with a 0.1 mM quinine hydrochloride aqueous solution” value in series [2] is on record as “more bitter than a 0.1 mM quinine hydrochloride aqueous solution”.
